Results on 77 compounds are retold here after patent publication US20240334931A1, “NEMATICIDAL COMPOSITION” (ISHIHARA SANGYO KAISHA, LTD., priority 2021, published 2024).

The first assay concerns southern root-knot nematode (Meloidogyne incognita). Nature of the assay: Test on effects against southern root-knot nematode: treated contaminated soil, cucumber pot test (Test Example 1 and Comparative Test). It counts as in vivo. Also on record: key: 0: No knot formed on the root at all; 1: Knots formed to a slight degree; 2: Knots formed to a moderate degree; 3: Knots formed to a heavy degree; 4: Knots formed to the heaviest degree. Particulars: 200 ppm, 10 ml poured to 200 ml contaminated soil; cucumber; two to three weeks after sowing. As to the method: The treated soil was put into a pot, three cucumber seeds were sown, and the pot was placed in a greenhouse. Two to three weeks after the sowing of the cucumber seeds, the root knot index was determined based on the degree of formation of root knots shown in Table 5. Each composition containing Compound No. […]-192 or B-196 at a concentration of 400 ppm and the composition containing Compound No. […] [table] […] Root knot index of 2 corresponds to a state where the proportion of healthy roots is 50% or less to the entire roots, and indicates control effects to such an extent that cucumber as a crop plant to be tested cannot healthily grow.
`CC(C)(C(=NNC=O)c1ccccc1F)n1cnc(C(F)(F)F)n1` [A-153]: the root knot index is 1.

Staying with this assay, now noted: 400 ppm, 10 ml poured to 200 ml contaminated soil; cucumber; two to three weeks after sowing.
With `CC(C)(C(=NNC=O)c1c(F)cccc1F)n1ccc(C(F)(F)F)n1` [A-160], the root knot index is 1.

Compound `COc1cccc(C(=NNC=O)C(C)(C)n2ccc(Cl)n2)c1` [A-330] showed a root knot index of 1.

`CC(C)(C(=NNC=O)c1cccc2c1OC(F)(F)O2)n1cnc([N+](=O)[O-])n1` [A-419]: the root knot index came out at 1.

For the compound `CC(C)(C(=NNC=O)c1ccccc1F)n1ccc(C(F)(F)F)n1` [A-152], the root knot index was 1.

`CC(C)(C(=NNC=O)c1ccccc1Cl)n1ccc([N+](=O)[O-])n1` [A-205]: the root knot index is 1.

With `CC(C)(C(=NNC=O)c1ccccc1Br)n1ccc(C(F)(F)F)n1` [A-233], the root knot index was 1.

For the compound `CC(C)(C(=NNC=O)c1cccc(F)c1)n1ccc(Cl)n1` [A-277], the root knot index was found to be 1.

`CC(C)(C(=NNC=O)c1ccccc1Cl)n1cc(F)cn1` [A-217]: the root knot index is 1.

On to `CSc1ccn(C(C)(C)C(=NNC=O)c2cccc(F)c2)n1` [A-430], for which the root knot index is 1.

`CC(C)(C(=NNC=O)c1cccc2c1OC(F)(F)O2)n1ccc(Cl)n1` [A-412] registered a root knot index of 1.

Turning to `CC(C)(C(=NNC=O)c1cccc2c1OC(F)(F)O2)n1ccc(C(F)(F)F)n1` [A-410], the root knot index was 1.

For `CC(C)(C(=NNC=O)c1cccc(F)c1F)n1ccc(C(F)(F)F)n1` [A-336], the root knot index was determined as 1.

On to `Cc1cccc(C(=NNC=O)C(C)(C)n2ccc(Cl)n2)c1` [A-324], for which the root knot index worked out at 1.

In turn, `O=CNN=C(c1ccc(Cl)cc1)C1(n2ccc(C(F)(F)F)n2)CC1` (single isomer, unassigned) [B-87] yielded a root knot index of 1.

In turn, `CC(C)(C(=NNC=O)c1ccccc1OC(F)(F)F)n1ccc(Br)n1` [A-272] yielded a root knot index of 1.

Turning to `Cc1ccccc1C(=NNC=O)C(C)(C)n1ccc(C#N)n1` [A-253], the root knot index is on record as 1.

On to `Cc1ccccc1C(=NNC=O)C(C)(C)n1ccc(Cl)n1` [A-247], for which the root knot index was 1.

Take `CC(C)(C(=NNC=O)c1cccc(F)c1F)n1cnc(C(F)(F)F)n1` [A-337]: the root knot index amounted to 1.

As to `Cc1ccccc1C(=NNC=O)C(C)(C)n1cnc(C(F)(F)F)n1` [A-245], the root knot index was found to be 1.

In turn, `Cc1ccccc1C(=NNC=O)C(C)(C)n1ccc([N+](=O)[O-])n1` [A-251] yielded a root knot index of 1.

With `Cc1ccccc1C(=NNC=O)C(C)(C)n1cc([N+](=O)[O-])cn1` [A-256], the root knot index was 1.

As to `CC(C)(C(=NNC=O)c1cccc(F)c1)n1cnc(C(F)(F)F)n1` [A-275], the root knot index came out at 1.

`CC(C)(C(=NNC=O)c1cccc2c1OC(F)(F)O2)n1cnc(C(F)F)n1` [A-424] yielded a root knot index of 1.

`CC(C)(C(=NNC=O)c1ccc(F)cc1F)n1cnc(C(F)(F)F)n1` [A-157] came in with a root knot index of 1.

For the compound `C#CCN(C=O)N=C(c1ccccc1Cl)C(C)(C)n1ccc(C(F)(F)F)n1` [A-195], the root knot index amounted to 1.

Compound `CC(C)(C(=NNC=O)c1cc(F)ccc1Cl)n1ccc(C(F)(F)F)n1` [A-351] registered a root knot index of 1.

For `Cc1ccccc1C(=NNC=O)C(C)(C)n1cnc(Cl)n1` [A-248], the root knot index is listed as 1.

For the compound `CC(C)(C(=NNC=O)c1cccc(F)c1)n1cnc(Cl)n1` [A-278], the root knot index was found to be 1.

In turn, `CC(C)(C(=NNC=O)c1ccccc1I)n1cnc(C(F)(F)F)n1` [A-241] yielded a root knot index of 1.

Compound `CCN(C=O)N=C(c1ccc(Cl)cc1)C(C)(C)n1cnc(C(F)(F)F)n1` [A-95] showed a root knot index of 1.

Compound `CC(C)(C(=NNC=O)c1ccccc1OC(F)(F)F)n1ccc(C(F)(F)F)n1` [A-270] registered a root knot index of 1.

Consider `CC(C)(C(=NNC=O)c1ccccc1Cl)n1cnc([N+](=O)[O-])n1` [A-206], for which the root knot index came out at 1.

`CC(C)(C(=NNC=O)c1ccccc1Cl)n1ccc(I)n1` [A-203] registered a root knot index of 1.

On to `Cc1ccccc1C(=NNC=O)C(C)(C)n1ccc(Br)n1` [A-249], for which the root knot index came out at 1.

`CC(C)(C(=NNC=O)c1cccc2c1OC(F)(F)O2)n1ccc(Br)n1` [A-414] came in with a root knot index of 1.

As for `CN(C=O)N=C(c1ccc(Cl)cc1)C(C)(C)n1cnc(C(F)(F)F)n1` [A-94], the root knot index came out at 1.

`COc1ccccc1C(=NNC=O)C(C)(C)n1ccc(C(F)(F)F)n1` [A-264] came in with a root knot index of 1.

`CC(C)(C(=NNC=O)c1ccc(F)cc1F)n1ccc(Cl)n1` [A-344] returned a root knot index of 1.

Turning to `Cc1ccccc1C(=NNC=O)C(C)(C)n1ccc(C(F)(F)F)n1` [A-244], the root knot index worked out at 1.

With `CC(C)(C(=NNC=O)c1cccc(F)c1Cl)n1ccc(C(F)(F)F)n1` [A-349], the root knot index is listed as 1.

Consider `O=CNN=C(c1ccccc1)C1(n2ccc(C(F)(F)F)n2)CCC1` [B-81], for which the root knot index is recorded as 1.

The compound `CC(C)(C(=NNC=O)c1cc(Cl)ccc1Cl)n1cnc(C(F)(F)F)n1` [A-335] registered a root knot index of 1.

The compound `CC(C)(C(=NNC=O)c1c(F)cccc1F)n1cnc(C(F)(F)F)n1` [A-161] yielded a root knot index of 1.

On to `CC(C)(C(=NNC=O)c1ccccc1Cl)n1ccc(Cl)n1` [A-199], for which the root knot index was 1.

As to `COc1ccccc1C(=NNC=O)C(C)(C)n1cnc(C(F)(F)F)n1` [A-265], the root knot index worked out at 1.

`CC(C)(C(=NNC=O)c1cc(Cl)ccc1Cl)n1ccc(C(F)(F)F)n1` [A-334] registered a root knot index of 1.

Regarding `CC(C)(C(=NNC=O)c1ccccc1Cl)n1cnc(C(F)(F)F)n1` [A-151], the root knot index came out at 1.

For `CC(C)(C(=NNC=O)c1ccccc1Cl)n1nc(Br)nc1Br` [A-224], the root knot index came to 1.

As to `COCN(C=O)N=C(c1ccccc1Br)C(C)(C)n1ccc(C(F)(F)F)n1` [A-235], the root knot index was found to be 1.

As to `CC(C)(C(=NNC=O)c1ccccc1C(F)(F)F)n1cnc(C(F)(F)F)n1` [A-261], the root knot index was 1.

The compound `CC(C)(C(=NNC=O)c1ccccc1Cl)n1cc(C(F)(F)F)cn1` [A-216] came in with a root knot index of 1.

In the case of `CC(C)(C(=NNC=O)c1cccc2c1OC(F)(F)O2)n1cnc(Cl)n1` [A-413], the root knot index amounted to 1.

`O=CNN=C(c1ccc(F)cc1)C1(n2ccc(C(F)(F)F)n2)CC1` (single isomer, unassigned) [B-105] showed a root knot index of 1.

Take `CC(C)(C(=NNC=O)c1ccc(F)cc1F)n1ccc(C(F)(F)F)n1` [A-156]: the root knot index is 1.

`Cc1ccccc1C(=NNC=O)C(C)(C)n1cnc([N+](=O)[O-])n1` [A-252] showed a root knot index of 1.

Regarding `CC(C)(C(=NNC=O)c1cccc(F)c1Cl)n1cnc(C(F)(F)F)n1` [A-350], the root knot index stood at 1.

For `CC(C)(C(=NNC=O)c1ccccc1Cl)n1ccc(Br)n1` [A-201], the root knot index was 1.

In turn, `CC(C)(C(=NNC=O)c1ccccc1Cl)n1cnc(C(F)F)n1` [A-198] returned a root knot index of 1.

Regarding `CC(C)(C(=NNC=O)c1ccccc1Cl)n1ccc(C(F)(F)F)n1` [A-150], the root knot index stood at 1.

In turn, `COc1cccc(C(=NNC=O)C(C)(C)n2cnc(C(F)(F)F)n2)c1` [A-329] registered a root knot index of 1.

`CCCN(C=O)N=C(c1ccc(Cl)cc1)C(C)(C)n1cnc(C(F)(F)F)n1` [A-96] yielded a root knot index of 1.

Compound `O=CNN=C(c1ccccc1Cl)C1(n2ccc(C(F)(F)F)n2)CC1` [B-148] yielded a root knot index of 1.

Take `Cc1ccccc1C(=NNC=O)C(C)(C)n1cc(C#N)c(C(F)(F)F)n1` [A-257]: the root knot index was 1.

`Cc1ccccc1C(=NNC=O)C(C)(C)n1cc(F)cn1` [A-255] had a root knot index of 1.

For the compound `CC(C)(C(=NNC=O)c1ccc(Cl)cc1)n1cnc(C(F)(F)F)n1` [A-90], the root knot index turned out to be 1.

The compound `CCN(C=O)N=C(c1ccccc1Cl)C(C)(C)n1ccc(C(F)(F)F)n1` [A-193] displayed a root knot index of 1.

Regarding `CC(C)(C(=NNC=O)c1ccccc1OC(F)(F)F)n1cnc(C#N)n1` [A-273], the root knot index worked out at 1.

The compound `CC(C)(C(=NNC=O)c1ccccc1Cl)n1cnc(Br)n1` [A-202] yielded a root knot index of 1.

As to `CC(C)(C(=NNC=O)c1ccccc1Cl)n1cnc(Cl)n1` [A-200], the root knot index was 1.

In turn, `CC(C)(C(=NNC=O)c1ccccc1I)n1ccc(C(F)(F)F)n1` [A-240] showed a root knot index of 1.

Turning to `CC(C)(C(=NNC=O)c1cccc(Cl)c1Cl)n1ccc(C(F)(F)F)n1` [A-332], the root knot index was determined as 1.

As for `CC(C)(C(=NNC=O)c1cccc2c1OC(F)(F)O2)n1cnc(C#N)n1` [A-417], the root knot index amounted to 1.

As for `CC(C)(C(=NNC=O)c1cccc(C(F)(F)F)c1)n1cnc(C(F)(F)F)n1` [A-327], the root knot index was found to be 1.

The same assay, now with this note: Comparative Test, active ingredient concentration 50 ppm; otherwise as Test Example 1 (cucumber).
Compound `CC(C(=NNC=O)c1cccc(Cl)c1)n1ccc(C(F)(F)F)n1` (centres unmarked) [Compound A-58 (WO2020/ 179910), reference compound] came in with a root knot index of 2.

Compound `CC(C(=NNC=O)c1ccccc1)n1cnc(C(F)(F)F)n1` (centres unmarked) [Compound A-3 (WO2020/ 179910), reference compound] came in with a root knot index of 2.

`CC(C(=NNC=O)c1ccccc1)n1ccc(C(F)(F)F)n1` (centres unmarked) [Compound A-1 (WO2020/ 179910), reference compound] registered a root knot index of 2.
